# Active and inactive are the calls of the source. The calls are words filed in the database; no cut-off is given here.
# Columns and labels:
# BMDM [1] = experiment: Anti-osteoclastogenic activity in M-CSF/RANKL-induced C57BL/6 mouse BMDM cells assessed as inhibition of M-CSF/RANKL-stimulated osteoclast differentiation at 10 uM measured after 5 days by TRAP staining based microscopic analysis relative to control; assay type: functional; parameters: scale not given: the % may be the effect or the level left; settings: time 5 day
# C3H 10T1/2 [2] = experiment: Anabolic activity in mouse C3H 10T1/2 cells by measuring fold change in osteoblast differentiation at 10 uM incubated for 7 days by ALP staining based analysis; assay type: functional; settings: time 7 day
# BMDM [3] = experiment: Anti-osteoclastogenic activity in M-CSF/RANKL-induced C57BL/6 mouse BMDM cells assessed as inhibition of M-CSF/RANKL-stimulated osteoclast differentiation measured after 5 days by TRAP staining based microscopic analysis; assay type: functional, cell-based; settings: C57BL/6, BMDM, 120 h
# [4] = Cytotoxicity against mouse RAW264.7 cells incubated for 48 hrs by CCK-8 assay; assay type: toxicity, cell-based
# C3H 10T1/2 [5] = experiment: Induction of osteoblast mineralization in mouse C3H 10T1/2 cells assessed as increase in calcium deposition at 10 uM measured after 14 days by Alizarin Red S staining based analysis; assay type: functional, cell-based; settings: time 14.0 day
# C3H 10T1/2 [6] = experiment: Induction of osteoblast differentiation in mouse C3H 10T1/2 cells at 10 uM incubated for 7 days by ALP staining based analysis; assay type: functional, cell-based; settings: time 7.0 day
# C3H 10T1/2 [7] = experiment: Induction of osteoblastogenesis in mouse C3H 10T1/2 cells assessed as upregulation of ALP gene expression at 1 uM incubated for 7 days by RT-qPCR analysis; assay type: functional, cell-based; settings: time 7.0 day
# C3H 10T1/2 [8] = experiment: Induction of osteoblastogenesis in mouse C3H 10T1/2 cells assessed as upregulation of SP7 gene expression at 1 uM incubated for 7 days by RT-qPCR analysis; assay type: functional, cell-based; settings: time 7.0 day
# C3H 10T1/2 [9] = experiment: Induction of osteoblastogenesis in mouse C3H 10T1/2 cells assessed as upregulation of SPARC gene expression at 1 uM incubated for 7 days by RT-qPCR analysis; assay type: functional, cell-based; settings: time 7.0 day
# C3H 10T1/2 [10] = experiment: Induction of osteoclastogenesis in mouse C3H 10T1/2 cells assessed as upregulation of RANKL gene expression at 1 uM incubated for 7 days by RT-qPCR analysis; assay type: functional, cell-based; settings: time 7.0 day
# BMDM [11] = experiment: Anti-osteoclastogenic activity in M-CSF/RANKL-induced C57BL/6 mouse BMDM cells assessed as downregulation of ATP6VOD2 mRNA expression at 1 uM incubated for 7 days by RT-qPCR analysis; assay type: functional, cell-based; settings: time 7.0 day
# BMDM [12] = experiment: Anti-osteoclastogenic activity in M-CSF/RANKL-induced C57BL/6 mouse BMDM cells assessed as downregulation of C-Fos mRNA expression at 1 uM incubated for 7 days by RT-qPCR analysis; assay type: functional, cell-based; settings: time 7.0 day
# BMDM [13] = experiment: Anti-osteoclastogenic activity in M-CSF/RANKL-induced C57BL/6 mouse BMDM cells assessed as downregulation of CTSK mRNA expression at 1 uM incubated for 7 days by RT-qPCR analysis; assay type: functional, cell-based; settings: time 7.0 day
# BMDM [14] = experiment: Anti-osteoclastogenic activity in M-CSF/RANKL-induced C57BL/6 mouse BMDM cells assessed as downregulation of TRACP mRNA expression at 1 uM incubated for 7 days by RT-qPCR analysis; assay type: functional, cell-based; settings: time 7.0 day
# C3H 10T1/2 [15] = experiment: Induction of osteoblast mineralization in mouse C3H 10T1/2 cells assessed as increase in calcium deposition at 1 uM measured after 14 days by Alizarin Red S staining based analysis; assay type: functional, cell-based; settings: time 14.0 day
Compound,Activity (BMDM [1]),fold change (FC) (C3H 10T1/2 [2]),IC50 (BMDM [3]),CC50 at 48 h [4],Activity (C3H 10T1/2 [5]),Activity (C3H 10T1/2 [6]),Activity (C3H 10T1/2 [7]),Activity (C3H 10T1/2 [8]),Activity (C3H 10T1/2 [9]),Activity (C3H 10T1/2 [10]),Activity (BMDM [11]),Activity (BMDM [12]),Activity (BMDM [13]),Activity (BMDM [14]),Activity (C3H 10T1/2 [15])
O=C(O)c1ccccc1C(=O)Nc1nccs1,75%,11.4,8.5 µM,178 µM,Active,Active,Active,Active,Active,inactive,–,–,–,–,–
Nc1cccc(-c2cc(C(=O)O)c3ccccc3n2)c1,50%,<2,–,–,–,–,–,–,–,–,–,–,–,–,–
O=C(O)c1ccc(N2C(=O)CSC2=S)cc1,79%,7.5,–,–,–,–,–,–,–,–,–,–,–,–,–
O=C(O)c1cc2ccccc2cc1C(=O)Nc1nccs1,–,–,1.05 µM,490 µM,–,–,Active,Active,Active,inactive,Active,Active,Active,Active,Active
O=C(O)C1OC(Oc2cc3oc(-c4ccc(O)cc4)cc(=O)c3c(O)c2O)C(O)C(O)C1O (configuration not stated),80%,<2,–,–,–,–,–,–,–,–,–,–,–,–,–

# Source: ChEMBL document CHEMBL5584340, “Discovery of Novel Antiosteoporosis Leads with Bone Resorption Inhibition and Anabolic Promotion through a Chemotype-Assembly Approach” (J Med Chem, 2024)
